The values below are quoted from earlier work in patent publication US6344571B2, “Water soluble analogs and prodrugs of paclitaxel” (Pharmachemie B.V., priority 1998, dated 2002).

The conditions of data set [1]: SAR studies, literature; cited from earlier work.
For the next data set, the system named is microtubule assembly. The note with it: SAR studies, literature; cited from earlier work.

On to `CC(=O)O[C@H]1C(=O)[C@@]2(C)[C@H]([C@H](OC(=O)c3ccccc3)[C@]3(O)C[C@H](OC(=O)[C@H](OC(C)=O)[C@@H](NC(=O)c4ccccc4)c4ccccc4)C(C)=C1C3(C)C)[C@]1(OC(C)=O)CO[C@@H]1C[C@@H]2O` [2′-acetyl-paclitaxel], for which the “cytotoxic activity compared with paclitaxel” value in data set [1] was “almost the same as for paclitaxel”. Besides, in the data set on microtubule assembly, the “activity in microtubule assembly assays” value is recorded as “loss of the ability to promote microtubule assembly”. With `CC(=O)O[C@H]1C(=O)[C@]2(C)[C@@H](OC(C)=O)C[C@H]3OC[C@@]3(OC(C)=O)[C@H]2[C@H](OC(=O)c2ccccc2)[C@]2(O)C[C@H](OC(=O)[C@H](O)[C@@H](NC(=O)c3ccccc3)c3ccccc3)C(C)=C1C2(C)C` [7-acetylpaclitaxel], the “activity in microtubule assembly assays” value with microtubule assembly was “as active as paclitaxel”.
